Data from article PMC9857891, “Optimization and Molecular Mechanism of Novel α-Glucosidase Inhibitory Peptides Derived from Camellia Seed Cake through Enzymatic Hydrolysis” (Foods, 2023).
Where a SMILES comes first, the peptide text is derived from it. Where no end group is shown, it is not given here.

How the values were obtained:
α-glucosidase [1] = test: Simulated gastrointestinal digestion in vitro, residual α-glucosidase inhibitory activity; format: in vitro ADME; details: 37 °C; for loss of α-glucosidase inhibitory activity after SGID: SGF 120 min then SIF 120 min; for loss of α-glucosidase inhibitory activity after simulated gastric digestion (SGD): SGF, 120 min
Protocol: (§1) The α-glucosidase inhibition activity was performed as described in the literature. In a 96-well enzyme plate, 40 μL of PBS buffer solution (pH 6.86, 0.1 M), 40 μL of sample solution, and 80 μL of α-glucosidase solution (0.2 U/mL) were added, mixed well, and reacted at 37 °C for 15 min. Next, 80 μL of 2.5 mM p-nitrophenyl-α-D-glucopyranoside (pNPG, 0.1 M, pH 6.8 in PBS) was added, mixed well, and reacted at 37 °C for 20 min. Finally, 150 μL of 0.2 M Na2CO3 solution was added to stop the reaction, which was then measured for absorbance values at 405 nm A1. Data were collected for three parallel experiments. (1) α-glucosidase inhibitory activity (%) = A0− (A 1− A2)/ A0 × 100% where A0 is the absorbance of an equal amount of PBS buffer in place of the sample; A2 is the absorbance of an equal amount of PBS buffer in place of the α-glucosidase solution and pNPG solution.
The method of simulated gastrointestinal digestion (SGID) follows the previous method with slight modifications. Simulated gastric fluid (SGFs) and simulated intestinal fluid (SIFs) are both purchased from Shanghai Yuanye Biotechnology Co., Ltd., as previously mentioned. In brief, the synthesized peptide LLVLYYEY and LLLLPSYSEF was pre-dissolved to 4 mg/mL in pure water. LLVLYYEY and LLLLPSYSEF aqueous solution was mixed with SGFs (1:1, v/v) and digested at 37 °C for 120 min. SIFs (1:1, v/v) was then mixed and the mixture was incubated for 120 min. After 120 min of incubation, the pH was adjusted to 7 by NaOH (1M) to stop the simulated gastric digestion (SGD) phase; after 240 min of incubation the simulated intestinal digestion (SID) phase was stopped by a boiling water bath for 10 min.

α-glucosidase [2] = test: α-glucosidase inhibition assay in vitro (pNPG substrate); format: biochemical; details: synthesized peptides; read-out: α-glucosidase Inhibitory Activity (IC50)
Protocol: as §1

Molecule	loss of α-glucosidase inhibitory activity after SGID (α-glucosidase [1])	loss of α-glucosidase inhibitory activity after simulated gastric digestion (SGD) (α-glucosidase [1])	IC50 (α-glucosidase [2]) [mM]
LLVLYYEY [LLVLYYEY, Leu-Leu-Val-Leu-Tyr-Tyr-Glu-Tyr]	significant loss of activity	essentially no loss	
LLLLPSYSEF [LLLLPSYSEF, Leu-Leu-Leu-Leu-Pro-Ser-Tyr-Ser-Glu-Phe]	significant loss of activity	essentially no loss	
CC(C)C[C@H](N)C(=O)N[C@@H](CS)C(=O)N[C@@H](CC(=O)O)C(=O)N[C@@H](CCC(N)=O)C(=O)N[C@@H](CS)C(=O)N1CCC[C@H]1C(=O)N1CCC[C@H]1C(=O)N[C@@H](Cc1c[nH]cn1)C(=O)N[C@@H](C)C(=O)O [LCDQCPPHA, Leu-Cys-Asp-Gln-Cys-Pro-Pro-His-Ala] (H-LCDQCPPHA-OH)			4.32
C[C@H](N)C(=O)N[C@H](C(=O)N[C@@H](CC(N)=O)C(=O)N1CCC[C@H]1C(=O)N1CCC[C@H]1C(=O)N[C@@H](CS)C(=O)N[C@@H](CS)C(=O)N[C@@H](CCC(N)=O)C(=O)N1CCC[C@H]1C(=O)O)[C@@H](C)O [ATNPPCCQP, Ala-Thr-Asn-Pro-Pro-Cys-Cys-Gln-Pro] (H-ATNPPCCQP-OH)			> 10
